From PubChem BioAssay AID328 (DTP/NCI, 2004)
Values joined by “and” are separate entries in the source; they are usually repeats but may differ in a detail not shown here. Equal entries are not always repeated. Inconclusive results and toxic doses are left out.

System: BDF1 mice, P388 leukemia ip, median survival T/C
Test: NCI In Vivo Anticancer Drug Screen. Data for tumor model P388 Leukemia (intraperitoneal) in B6D2F1 (BDF1) mice
Settings: endpoint: median survival time, higher = longer survival
Procedure, shortened: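 Vehicle-dosed animals serve as the reference; survival of compound-dosed, tumour-implanted mice is divided by it.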

[1] = dose: 100.0 mg/kg/injection, schedule: Q04DX003 (ip), vehicle: Klucel (hydroxypropylcellulose) (HPC)
[2] = dose: 200.0 mg/kg/injection, schedule: Q04DX003 (ip), vehicle: Klucel (hydroxypropylcellulose) (HPC)
[3] = dose: 400.0 mg/kg/injection, schedule: Q04DX003 (ip), vehicle: Klucel (hydroxypropylcellulose) (HPC)
[4] = dose: 100.0 mg/kg/injection, schedule: Q01DX009 (ip), vehicle: Klucel (hydroxypropylcellulose) (HPC)
[5] = dose: 200.0 mg/kg/injection, schedule: Q01DX009 (ip), vehicle: Klucel (hydroxypropylcellulose) (HPC)
[6] = dose: 400.0 mg/kg/injection, schedule: Q01DX009 (ip), vehicle: Klucel (hydroxypropylcellulose) (HPC)
[7] = dose: 50.0 mg/kg/injection, schedule: Q04DX003 (ip), vehicle: Klucel (hydroxypropylcellulose) (HPC)
[8] = dose: 100.0 mg/kg/injection, schedule: Q01DX009 (ip), vehicle: saline with Tween-80
[9] = dose: 100.0 mg/kg/injection, schedule: Q04DX003 (ip), vehicle: saline with Tween-80
[10] = dose: 200.0 mg/kg/injection, schedule: Q01DX009 (ip), vehicle: saline with Tween-80
[11] = dose: 200.0 mg/kg/injection, schedule: Q04DX003 (ip), vehicle: saline with Tween-80
[12] = dose: 400.0 mg/kg/injection, schedule: Q04DX003 (ip), vehicle: saline with Tween-80
[13] = dose: 25.0 mg/kg/injection, schedule: Q01DX009 (ip), vehicle: saline with Tween-80
[14] = dose: 1.56 mg/kg/injection, schedule: Q01DX009 (ip), vehicle: saline with Tween-80
[15] = dose: 6.25 mg/kg/injection, schedule: Q01DX009 (ip), vehicle: saline with Tween-80
[16] = dose: 12.5 mg/kg/injection, schedule: Q01DX009 (ip), vehicle: saline with Tween-80
[17] = dose: 50.0 mg/kg/injection, schedule: Q01DX009 (ip), vehicle: saline
[18] = dose: 50.0 mg/kg/injection, schedule: Q01DX009 (ip), vehicle: saline with Tween-80
[19] = dose: 50.0 mg/kg/injection, schedule: Q04DX003 (ip), vehicle: saline with Tween-80
[20] = dose: 50.0 mg/kg/injection, schedule: Q01DX009 (ip), vehicle: Klucel (hydroxypropylcellulose) (HPC)

For O=Cc1ccc(N(c2ccccc2)c2ccccc2)cc1, the T/C [1] was 111 % of control, the T/C [2] was 111 % of control and the T/C [3] was 94 % of control.
In the case of Cc1ccc(C(CCC#N)OC(C)C)cc1 (stereo not given), the T/C [4] is reported as 86 % of control, the T/C [1] is reported as 100 % of control and the T/C [5] is reported as 109 % of control. For the same compound, the T/C [2] was 109 % of control, the T/C [6] was 113 % of control and the T/C [3] was 109 % of control.
With C[C@@H]1CC[C@@]2(NC1)O[C@H]1C[C@H]3[C@@H]4CC=C5C[C@@H](O)CC[C@]5(C)[C@H]4CC[C@]3(C)[C@H]1[C@@H]2C the T/C [7] was 100 % of control, the T/C (dose: 50.0 mg/kg/injection, schedule: Q04DX003 (ip), vehicle: saline sonified) was 110 % of control and the T/C (dose: 88.0 mg/kg/injection, schedule: Q01DX009 (ip), vehicle: saline with Tween-80) was 86 % of control. For the same compound, the T/C [1] was 109 % of control, the T/C (dose: 100.0 mg/kg/injection, schedule: Q04DX003 (ip), vehicle: saline sonified) was 100 % of control and the T/C (dose: 132.0 mg/kg/injection, schedule: Q01DX009 (ip), vehicle: saline with Tween-80) was 118 % of control. For the same compound, the T/C [2] was 104 % of control, the T/C (dose: 200.0 mg/kg/injection, schedule: Q04DX003 (ip), vehicle: saline sonified) was 105 % of control and the T/C (dose: 300.0 mg/kg/injection, schedule: Q01DX009 (ip), vehicle: saline with Tween-80) was 95 % of control.
CC#CCOCC(CCl)OC(=O)Nc1ccccc1 (stereo not given) was tested, and the T/C [8] was 100 % of control, the T/C [9] was 120 % of control and the T/C [10] was 112 % of control. The T/C [11] was 110 % of control, the T/C (dose: 400.0 mg/kg/injection, schedule: Q01DX009 (ip), vehicle: saline with Tween-80) was 108 % of control and the T/C [12] was 100 % of control.
With O=C(O)CSC(=S)c1ccccc1 the T/C [13] was 118 % of control and the T/C [8] was 121 % of control.
CCCC[S+](CCCC)CC(=O)c1ccc(-c2ccccc2)cc1 was tested, and the T/C [14] was 105 % of control, the T/C (dose: 3.13 mg/kg/injection, schedule: Q01DX009 (ip), vehicle: saline with Tween-80) was 100 % of control and the T/C [15] was 106 % of control. The T/C [16] was 107 % of control and the T/C [13] was 113 % of control.
In the case of CC(C)(C)OC(=O)NC(CCC(=O)O)(Cc1ccccc1)C(=O)NC(CCC(=O)O)(Cc1ccccc1)C(=O)OCc1ccccc1 (stereo not given), the T/C (dose: 200.0 mg/kg/injection, schedule: Q01DX005 (ip), vehicle: saline with Tween-80) is reported as 90 % of control.
In the case of COC(=O)c1cc(-c2ccccc2)[nH]c1-c1ccccc1, the T/C [17] is reported as 92 % of control.
With Nc1nc(N)c2cc(S(=O)(=O)c3ccc(Cl)c(Cl)c3)ccc2n1 the T/C [18] was 100 % of control, the T/C [8] was 91 % of control and the T/C [10] was 102 % of control.
In the case of COCCc1ccncc1, the T/C [8] is reported as 101 % of control and the T/C [10] is reported as 97 % of control.
With COc1cccc2c1C(=O)c1c(O)c3c(c(O)c1C2=O)C[C@@](O)(/C(C)=N/NC(=O)c1ccc(O)cc1)C[C@@H]3OC1CC(N)C(O)C(C)O1 (stereo not given in full) the T/C (dose: 0.25 mg/kg/injection, schedule: Q01DX009 (ip), vehicle: water) was 120 % of control, the T/C (dose: 1.0 mg/kg/injection, schedule: Q01DX009 (ip), vehicle: water) was 164 % of control and 223 % of control and the T/C (dose: 2.0 mg/kg/injection, schedule: Q01DX009 (ip), vehicle: water) was 156 % of control and 207 % of control. The T/C (dose: 4.0 mg/kg/injection, schedule: Q01DX009 (ip), vehicle: water) was 224 % of control and 225 % of control and the T/C (dose: 8.0 mg/kg/injection, schedule: Q01DX009 (ip), vehicle: water) was 245 % of control.
In the case of O=C(NCCCCOc1ccc([N+](=O)[O-])cc1Cl)c1ccc(S(=O)(=O)F)cc1, the T/C [19] is reported as 103 % of control, the T/C [9] is reported as 96 % of control and 112 % of control and the T/C [11] is reported as 106 % of control. For the same compound, the T/C [12] was 90 % of control and 103 % of control.
For CCOC(=O)/C(C#N)=C/N=c1ncccn1C, the T/C [9] was 98 % of control, the T/C [11] was 93 % of control and the T/C [12] was 102 % of control.
Cc1ccc(C)c(NC(=O)c2ccc(Cl)cc2Cl)c1 was tested, and the T/C (dose: 75.0 mg/kg/injection, schedule: Q01DX001 (ip), vehicle: other) was 90 % of control and the T/C (dose: 150.0 mg/kg/injection, schedule: Q01DX001 (ip), vehicle: other) was 90 % of control.
For Cc1cn(C2CC(O)C(CO)O2)c(=O)[nH]c1=O (stereo not given), the T/C (dose: 500.0 mg/kg/injection, schedule: Q04DX003 (ip), vehicle: saline) was 101 % of control, the T/C (dose: 750.0 mg/kg/injection, schedule: Q04DX003 (ip), vehicle: saline) was 111 % of control and the T/C (dose: 1000.0 mg/kg/injection, schedule: Q04DX003 (ip), vehicle: saline) was 104 % of control.
Nc1ccn(CC(=O)c2cccs2)c(=O)n1 was tested, and the T/C [13] was 100 % of control, the T/C [18] was 115 % of control and the T/C [8] was 100 % of control. The T/C [9] was 90 % of control and the T/C [11] was 95 % of control.
With Fc1ccc(NC2=NCCN=C(Nc3ccc(F)cc3)SS2)cc1 the T/C [18] was 96 % of control, the T/C [8] was 87 % of control and the T/C [10] was 102 % of control.
With Cc1ccc(S(=O)(=O)F)c(Cl)c1 the T/C (dose: 50.0 mg/kg/injection, schedule: Q01DX009 (ip), vehicle: other) was 91 % of control, the T/C [19] was 100 % of control and the T/C (dose: 100.0 mg/kg/injection, schedule: Q01DX009 (ip), vehicle: other) was 91 % of control. For the same compound, the T/C [9] was 104 % of control, the T/C (dose: 200.0 mg/kg/injection, schedule: Q01DX009 (ip), vehicle: other) was 91 % of control and the T/C [11] was 109 % of control.
In the case of CSC(N)=Nc1cccc2c1CCCC2, the T/C (dose: 50.0 mg/kg/injection, schedule: Q04DX003 (ip), vehicle: saline) is reported as 108 % of control and the T/C (dose: 100.0 mg/kg/injection, schedule: Q04DX003 (ip), vehicle: saline) is reported as 108 % of control.
With CCOc1ccc2nc(S(N)(=O)=O)sc2c1 the T/C [4] was 114 % of control, the T/C [1] was 104 % of control and the T/C [5] was 114 % of control. The T/C [2] was 104 % of control, the T/C [6] was 109 % of control and the T/C [3] was 95 % of control.
In the case of O=C(Nc1ccc(Cl)cc1)c1ccccc1, the T/C [20] is reported as 122 % of control, the T/C [7] is reported as 95 % of control and the T/C [4] is reported as 95 % of control. The T/C [1] was 91 % of control, the T/C [5] was 90 % of control and the T/C [2] was 100 % of control.
For Cc1ccc(S(=O)(=O)N(C)c2ccc(C(=O)O)cc2F)cc1, the T/C (dose: 75.0 mg/kg/injection, schedule: Q04DX003 (ip), vehicle: saline) was 100 % of control, the T/C (dose: 150.0 mg/kg/injection, schedule: Q04DX003 (ip), vehicle: saline) was 104 % of control and the T/C (dose: 300.0 mg/kg/injection, schedule: Q04DX003 (ip), vehicle: saline) was 100 % of control.
For CCC[CH2][Sn]([I])([CH2]I)[CH2]CCC, the T/C [14] was 102 % of control, the T/C (dose: 3.12 mg/kg/injection, schedule: Q01DX009 (ip), vehicle: saline with Tween-80) was 106 % of control and the T/C [15] was 123 % of control.
CCC/C(C)=N/Nc1ccccn1 was tested, and the T/C (dose: 12.5 mg/kg/injection, schedule: Q01DX009 (ip), vehicle: Klucel (hydroxypropylcellulose) (HPC)) was 105 % of control, the T/C [16] was 95 % of control and the T/C (dose: 25.0 mg/kg/injection, schedule: Q01DX009 (ip), vehicle: Klucel (hydroxypropylcellulose) (HPC)) was 95 % of control and 110 % of control. The T/C [13] was 100 % of control, the T/C [20] was 100 % of control and 120 % of control and the T/C [18] was 91 % of control and 118 % of control. For the same compound, the T/C [17] was 120 % of control.
For Clc1ccc(-c2ccccc2)cc1Cl, the T/C [18] was 115 % of control, the T/C [8] was 114 % of control and the T/C [10] was 118 % of control.
NC(N)=N/N=C(/c1ccccc1)c1ccc(F)cc1 was tested, and the T/C (dose: 1.2 mg/kg/injection, schedule: Q01DX009 (ip), vehicle: Klucel (hydroxypropylcellulose) (HPC)) was 115 % of control, the T/C (dose: 5.0 mg/kg/injection, schedule: Q01DX009 (ip), vehicle: Klucel (hydroxypropylcellulose) (HPC)) was 104 % of control and 105 % of control and the T/C (dose: 5.0 mg/kg/injection, schedule: Q01DX009 (ip), vehicle: saline) was 95 % of control. The T/C (dose: 10.0 mg/kg/injection, schedule: Q01DX009 (ip), vehicle: Klucel (hydroxypropylcellulose) (HPC)) was 100 % of control and 109 % of control, the T/C (dose: 10.0 mg/kg/injection, schedule: Q01DX009 (ip), vehicle: saline) was 100 % of control and the T/C (dose: 20.0 mg/kg/injection, schedule: Q01DX009 (ip), vehicle: saline) was 112 % of control.
